According to patent publication US4108973A, “Immunoassay for catecholamines” (Hoffmann-La Roche Inc., priority 1976, dated 1978):

Target: Ab-7^123 dl-Met complex (epinephrine type catecholamine antibody)
Experiment: Antibody specificity: 50% inhibition of antibody-labelled dl-metanephrine complex (competitive binding radioimmunoassay)
Set-up: species or system rabbit
Conditions: amount for 50% inhibition; incubation volume 0.5 or 1.0 ml
Description: The specificity of an epinephrine type catecholamine antibody suitable for use in the practice of the present method is set forth below in Table 1:
For immunization of rabbits, 10 mg. of each of the products of Example 8 or Example 9 was dissolved in 1 ml. of phosphate buffered saline and emulsified with 1 ml. of complete Freund's adjuvant. The second inoculation was given three weeks later and consisted of 1.5 mg. immunogen in 1 ml. PBS emulsified with 1 ml. of complete Freund's adjuvant. The third injection, five weeks after the first, employed the same concentration of antigen but was in incomplete Freund's adjuvant. Immunizations were by the subcutaneous route.
A competitive binding radioimmunoassay procedure is used similar to that described in U.S. Pat. No. 3,704,282. An incubation volume of either 0.5 or 1.0 ml. is used and antibody-label complex is separated from free label by precipitation with saturated

| SMILES | 50 % INHIBITION OF Ab-7^123 dl-Met OMPLEX |
| --- | --- |
| CNCC(O)c1ccc(O)c(OC)c1 (racemic) [dl-Metanephrine] | 0.050 ng |
| CNCC(O)c1ccc(O)cc1 (racemic) [dl-Synephrine] | 0.100 ng |
| CNC[C@H](O)c1ccc(O)c(O)c1 [1-Epinephrine] | 0.250 ng |
| NC[C@H](O)c1ccc(O)c(O)c1 [1-Norepinephrine] | > 500 ng |
| CNC[C@H](O)c1cccc(O)c1 [1-Phenylephrine] | 0.060 ng |
| CC(N)Cc1ccccc1 (stereo not shown) [Amphetamine] | > 500 ng |
| N[C@@H](Cc1ccc(O)c(O)c1)C(=O)O [DOPA] | > 500 ng |
| NCCc1ccc(O)c(O)c1 [Dopamine] | > 500 ng |
| CNC(C)C(O)c1ccccc1 (stereo not shown) [Ephedrine] | > 500 ng |
| CNCCc1ccc(O)c(O)c1 [Epinine] | 0.350 ng |
| CC(C)NCC(O)c1ccc(O)c(O)c1 (stereo not shown) [Isoproterenol] | > 500 ng |
| CNC(C)Cc1ccccc1 (stereo not shown) [Methamphetamine] | > 500 ng |
| NCCc1c[nH]c2ccc(O)cc12 [Sezotosin] | > 500 ng |
